Patent publication US20090215893A1, “Parakeratosis inhibitor, pore-shrinking agent,or rough skin preventing/ameliorating agent, and external composition for skin” (Shiseido Company Ltd, priority 2005, published 2009)

Columns and labels:
[1] = test system: back of hairless mice (HR-1), 10 mass % oleic acid applied; assay: Inhibiting effect against rough skin induced by oleic acid application (transepidermal water loss); assay type: in vivo; parameters: ΔTEWL value: unit not given here; settings: for ΔTEWL value: sample 3 mass %, three days, average of four animals, rough skin worse as value increases, control 12.0; for ΔTEWL value compared with the control aqueous solution / rough skin preventing/ameliorating effect: summary of Table 3, concentrations as in Table 3
Outline: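 HR-1 hairless mice (four per group) received 100 μL 10 mass % oleic acid in ethanol on the back, then 100 μL sample solution, daily for three days. TEWL measured next day with a TEWA Meter; ΔTEWL versus before application, averaged over four animals, compared with aqueous control.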

[2] = test system: pores of the cheeks of healthy human males; assay: Human pore-shrinking effect (replica assessment of cheek pores); assay type: in vivo; settings: for Replica assessment (average of n = 5): sample 3 mass %, twice a day for one month, pore size rating 1-13, after application minus before application, control 0.3; for pore-shrinking effect: summary of Table 2, concentrations as in Table 2
[3] = test system: cheek of a panel of 20 women; assay: Sensory irritation tests; assay type: in vivo, human; settings: for Evaluation (sensory irritation, class of average rating): sample 3 mass %, 1 mL on cheek, evaluated for ten minutes, 20 women; for sensory irritation: summary of Table 4, β-alanine at 3%
Outline: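 A cotton swab applied 1 mL of control or sample aqueous solution to opposite cheeks of 20 women. Irritation was scored 0–3 every 30 s for 10 min. Average ratings were graded A (<0.2), B (0.2–<1.0), C (1.0–<2.0) or D (≥2.0).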

[4] = test system: back of a hairless mouse (HR-1), 10 mass % oleic acid applied; assay: Parakeratosis-inhibiting effect tests: oleic acid applied to hairless mouse back, macroscopic rough skin evaluation and parakeratosis value; assay type: in vivo; settings: for Macroscopic evaluation (average of four animals) / Parakeratosis value (average of four animals): sample 3 mass %; for Macroscopic evaluation (average of four animals): 100 μL after oleic acid, three days, rough skin score 0.0 (no redness) to 2.0 (control); for Parakeratosis value (average of four animals): tape-stripped stratum corneum, hematoxylin, range 1.0 to 3.0, higher = parakeratosis advanced, control 2.0; for parakeratosis value / parakeratosis-inhibiting effect / rough skin preventing effect, based on stratum corneum peeling and redness: summary of Table 1, concentrations as in Table 1
Outline: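 Hairless mouse backs given 100 μL of 10 mass % oleic acid in ethanol, then 100 μL of sample (mainly 3 mass % in 30% ethanol, pH 7.0 to 7.5), daily for three days. Rough skin scored 0.0 to 2.0 in 0.25 steps against control. Tape-stripped, hematoxylin-stained stratum corneum rated 1.0 to 3.0 for parakeratosis.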

CN[C@@H](C)C(=O)O [N-methyl-L-alanine]
ΔTEWL value [1]: 8.3 | ΔTEWL value compared with the control aqueous solution / rough skin preventing/ameliorating effect [1]: significantly lower | Replica assessment (average of n = 5) [2]: −0.8 | pore-shrinking effect [2]: seen | Evaluation (sensory irritation, class of average rating) [3]: A (average rating of less than 0.2) | sensory irritation [3]: no problems | Macroscopic evaluation (average of four animals) [4]: 1.4 | Parakeratosis value (average of four animals) [4]: 1.4 | parakeratosis value / parakeratosis-inhibiting effect [4]: reduced | rough skin preventing effect, based on stratum corneum peeling and redness [4]: seen

CCN[C@@H](C)C(=O)O [N-ethyl-L-alanine]
ΔTEWL value [1]: 8.4 | ΔTEWL value compared with the control aqueous solution / rough skin preventing/ameliorating effect [1]: significantly lower | Replica assessment (average of n = 5) [2]: −0.4 | pore-shrinking effect [2]: seen | Evaluation (sensory irritation, class of average rating) [3]: A (average rating of less than 0.2) | sensory irritation [3]: no problems | Macroscopic evaluation (average of four animals) [4]: 1.5 | Parakeratosis value (average of four animals) [4]: 1.4 | parakeratosis value / parakeratosis-inhibiting effect [4]: reduced | rough skin preventing effect, based on stratum corneum peeling and redness [4]: seen

O=C(O)[C@H](CO)NC1CCCCC1 [N-cyclohexyl-L-serine]
ΔTEWL value [1]: 7.0 | ΔTEWL value compared with the control aqueous solution / rough skin preventing/ameliorating effect [1]: significantly lower | Replica assessment (average of n = 5) [2]: −1.4 | pore-shrinking effect [2]: seen | Evaluation (sensory irritation, class of average rating) [3]: A (average rating of less than 0.2) | sensory irritation [3]: no problems | Macroscopic evaluation (average of four animals) [4]: 1.3 | Parakeratosis value (average of four animals) [4]: 1.2 | parakeratosis value / parakeratosis-inhibiting effect [4]: reduced | rough skin preventing effect, based on stratum corneum peeling and redness [4]: seen

CCNC(C)C(=O)O (racemic) [N-ethyl-DL-alanine]
ΔTEWL value [1]: 8.2 | ΔTEWL value compared with the control aqueous solution / rough skin preventing/ameliorating effect [1]: significantly lower | Replica assessment (average of n = 5) [2]: −0.5 | pore-shrinking effect [2]: seen | Evaluation (sensory irritation, class of average rating) [3]: A (average rating of less than 0.2) | sensory irritation [3]: no problems | Macroscopic evaluation (average of four animals) [4]: 1.6 | Parakeratosis value (average of four animals) [4]: 1.5 | parakeratosis value / parakeratosis-inhibiting effect [4]: reduced | rough skin preventing effect, based on stratum corneum peeling and redness [4]: seen
